According to article PMC11843613, “Further Optimization of the mGlu1 PAM VU6024578/BI02982816: Discovery and Characterization of VU6033685” (ACS Chemical Neuroscience, 2025):
“And” between values parts separate entries of the source, which are not always exact repeats. Equal entries are not always repeated. Where two headings read alike, the source gives them in different places.

Tests used:
dog mGlu1 = dog mGlu1 (Canis lupus familiaris, UniProt A0A8I3NTE8); assay: mGlu1 PAM functional assay (dog); type: cell-based
[1] = Plasma protein binding (c); type: in vitro ADME, c (presumably cynomolgus); conditions: cynomolgus monkey, pH 7.4, read-out: fu plasma (c)
Experimental: page 13: at half log concentrations in DMSO were further diluted in assay buffer. The compounds or DMSO vehicle were added to cells and incubated for 2.5 min and an EC20 concentration of glutamate was added and incubated for 1 min. An ECmax concentration of glutamate was also added to cells that were incubated with DMSO vehicle to accurately calculate the EC20 calcium response. Data were normalized by subtracting the basal florescent peak before EC20 agonist addition from the maximal peak elicited by EC20 agonist and PAMs. Using GraphPad Prism 5.0, the concentration response curves were generated and the potencies of the mGlu1 PAMs were determined. DMPK Methods Plasma protein binding: The protein binding of each compound was determined in plasma via equilibrium dialysis employing RED Plates (ThermoFisher Scientific, Rochester, NY). Plasma was added to the 96 well plate containing test compound and mixed thoroughly for a final concentration of 5 µM. Subsequently, an aliquot of the plasma-compound mixture was transferred to the cis chamber (red) of the RED plate, with an phosphate buffer (25 mM, pH 7.4) in the trans chamber. The RED plate was sealed and incubated for 4 hours at 37°C with shaking. […] The in vitro half-life (T 1/2, min, Eq. 1), intrinsic clearance (CLint, mL/min/kg, Eq. 2) and subsequent predicted hepatic clearance (CLhep, mL/min/kg, Eq. 3) was determined S13

[2] = Rat amphetamine-induced hyperlocomotion (AHL) with satellite PK; type: in vivo; conditions: male, Sprague-Dawley, brain (unbound); for concentration at 1.25 h: sample @ 1.25 hr
Experimental: (§1) mode (5.0 kV spray voltage). The calibration curves were constructed in blank plasma. All data were analyzed using AB Sciex Analyst software v1.5.1.
(§2) All animal study procedures were approved by the Institutional Animal Care and Use Committee and were conducted in accordance with the National Institutes of Health regulations of animal care covered in Principles of Laboratory Animal Care (National Institutes of Health). […]
(§3) GraphPad Prism (version 4.03, GraphPad, La Jolla, CA).
(§4) Amphetamine-induced hyperlocomotion (rat)
(§5) Adult male Sprague-Dawley rats placed into the activity chambers (Med Associates). Thirty minutes after placement in the chambers, the rats were administered VU6024578 (1-10 mg/kg p.o..) or vehicle. Sixty minutes later the rats were injected with amphetamine (0.75 mg/kg s.c. 1 ml/kg) or vehicle (saline) and placed back in the activity chambers for 90 minutes. The data for the studies were analyzed by a between-group 2 way analysis of variance for compound dose and time. Each dose group was compared with the vehicle control group. The calculations were performed and graphed using GraphPad Prism (version 4.03, GraphPad, La Jolla, CA). The AUC was analyzed by a 1-way ANOVA with a Dunnett’s post hoc test. […]

[3] = system: amphetamine-induced hyperlocomotion in rats; assay: as above; type: in vivo
Experimental: as §1, §2, §3, §4, §5

[4] = Dose escalation PO PK study in mice; type: in vivo, mouse
[5] = Three-day dose escalation toxicology study in mice; type: in vivo, mouse; conditions: for AUC at 3 day: in vivo
[6] = Sprague-Dawley, in vivo

dog mGlu1, sequence (A0A8I3NTE8 30-1195): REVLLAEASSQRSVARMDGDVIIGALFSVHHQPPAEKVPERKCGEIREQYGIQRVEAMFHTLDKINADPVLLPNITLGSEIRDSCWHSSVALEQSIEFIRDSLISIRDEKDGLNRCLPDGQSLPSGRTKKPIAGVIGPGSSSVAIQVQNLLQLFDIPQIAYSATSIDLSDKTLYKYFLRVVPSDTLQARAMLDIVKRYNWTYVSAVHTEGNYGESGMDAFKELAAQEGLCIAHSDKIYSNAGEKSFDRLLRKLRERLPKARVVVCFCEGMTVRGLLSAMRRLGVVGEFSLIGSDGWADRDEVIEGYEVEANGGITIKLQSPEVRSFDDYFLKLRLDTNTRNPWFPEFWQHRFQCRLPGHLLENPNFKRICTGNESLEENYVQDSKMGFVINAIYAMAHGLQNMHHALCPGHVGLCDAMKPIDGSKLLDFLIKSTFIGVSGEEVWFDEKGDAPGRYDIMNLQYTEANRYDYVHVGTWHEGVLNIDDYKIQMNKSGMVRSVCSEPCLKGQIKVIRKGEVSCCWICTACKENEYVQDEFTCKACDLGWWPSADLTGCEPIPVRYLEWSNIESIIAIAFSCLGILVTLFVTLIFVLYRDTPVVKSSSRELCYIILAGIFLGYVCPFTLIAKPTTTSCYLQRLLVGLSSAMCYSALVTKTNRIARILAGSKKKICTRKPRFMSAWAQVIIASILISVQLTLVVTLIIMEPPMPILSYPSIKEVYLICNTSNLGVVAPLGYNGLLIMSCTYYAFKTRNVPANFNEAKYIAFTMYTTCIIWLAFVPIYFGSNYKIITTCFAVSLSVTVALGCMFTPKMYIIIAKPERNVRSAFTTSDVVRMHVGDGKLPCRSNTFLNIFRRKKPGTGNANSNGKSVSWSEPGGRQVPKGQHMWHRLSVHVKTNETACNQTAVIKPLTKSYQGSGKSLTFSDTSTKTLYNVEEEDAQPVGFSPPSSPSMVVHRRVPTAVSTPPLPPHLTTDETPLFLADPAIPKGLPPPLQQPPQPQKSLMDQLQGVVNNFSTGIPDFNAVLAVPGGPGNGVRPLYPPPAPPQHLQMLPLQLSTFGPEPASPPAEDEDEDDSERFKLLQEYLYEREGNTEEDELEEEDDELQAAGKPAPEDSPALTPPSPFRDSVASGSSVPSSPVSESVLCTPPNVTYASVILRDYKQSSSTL

Cc1nc(C2CC2)ccc1CNC(=O)c1cc(-n2cccn2)ccc1Cl [compound 8]
EC50 (dog mGlu1): 93 nM
Emax (dog mGlu1; read-out: dog mGlu1 Glu Max): 79%
fraction unbound at 4 h, 5 µM [1]: 0.46
concentration at 1.25 h ([2]; rat PO 1 mg/kg, read-out: Brain Unbound at 1 mg/kg): 16.1 nM
concentration at 1.25 h ([2]; rat PO 3 mg/kg, read-out: Brain Unbound at 3 mg/kg): 35.4 nM
concentration at 2.5 h ([2]; rat PO 10 mg/kg, satellite PK, 2.5 h end of study (picture: sample @ 1.25 hr), read-out: free (unbound) brain concentration at 10 mg/kg): 79.8 nM
AHL efficacy compared with positive control 3 ([3]; rat): comparable efficacy to the standard 3
minimum effective dose (MED) in AHL ([3]; rat PO): 10 mg/kg
unbound brain concentration as fold of in vitro rat mGlu1 EC50 at efficacy in AHL ([3]; rat, 10 mg/kg MED, 10 mg/kg): ~0.74 fold and ~0.7 fold
reversal of amphetamine-induced hyperlocomotion ([3]; rat, oral administration, amphetamine 0.75 mg/kg SC): dose-dependently reversed
observations at >24-fold EC50 free brain ([4]; mouse PO): without any observed AEs
free brain concentration as fold of mouse EC50 at 500 mg/kg ([4]; mouse PO 500 mg/kg): ~90 fold
observations at 500 mg/kg ([4]; mouse PO 500 mg/kg): all animals displayed uncoordinated movements and were cold to the touch
free brain concentration reached without AEs ([4]; mouse PO dose escalation): ~1250 nM
free brain concentration as fold of mouse EC50 reached without AEs ([4]; mouse PO dose escalation (50, 150, 500 mg/kg)): > 24 fold
AUC at 3 day ([5]; mouse, three-day, 50 mg/kg, read-out: AUCss at 50 mg/kg): 5.5 µM·h
AUC at 3 day ([5]; mouse, three-day, 200 mg/kg, read-out: AUCss at 200 mg/kg): 69.9 µM·h
AUC at 3 day ([5]; mouse, three-day, high-dose group (printed 500 mg/kg), read-out: AUCss in high-dose group): 208 µM·h
maximum tolerated dose (MTD) ([5]; mouse three-day study): not reached
findings at 50 mg/kg ([5]; mouse, three-day, 50 mg/kg): no test-item-related findings
findings at 200 mg/kg ([5]; mouse, three-day, 200 mg/kg): some of the mice showed signs of weight loss, decreased motor activity, and swaying gait
findings in high-dose group ([5]; mouse, three-day, high-dose group (printed 500 mg/kg)): several mice displayed weight loss, decreased motor activity, and swaying gait
free brain concentration (fold rat EC50) that was well tolerated [6]: up to 5.3 fold
